Results: US5457104A, “Quinolone- and naphthyridonecarboxylic acid derivatives” (Bayer Aktiengesellschaft, priority 1993, dated 1995)
Converted amounts (≈) assume the structure as drawn.

How the values were obtained:
Test in all cases: MIC, serial dilution test on Iso-sensitest agar
Type in all cases: cell-based
[1] = system: Klebsiella pneumoniae 8085; details: 37° C., approx. 20 hours, approx. 10^4 CFU per inoculation point
Method: (§1) The minimum inhibitory concentrations (MIC) were determined by the serial dilution test on Iso-sensitest agar (Oxoid). For each test substance, a series of agar plates was prepared which contained concentrations of the active substance which decreased at a rate of in each case twice the dilution factor. The agar plates were inoculated using a multipoint inoculator (Denley). For inoculation, overnight cultures of the pathogens were used which had previously been diluted in such a manner that each inoculation point contained approximately 10^4 colony-forming units. The inoculated agar plates were incubated at 37° C., and the microbial growth was observed after approx. 20 hours. The MIC value (μg/ml) indicates the lowest active compound concentration at which no growth could be detected by the naked eye.

E. coli Neumann = details: Escherichia coli, 37° C., approx. 20 hours, approx. 10^4 CFU per inoculation point
Method: as §1

[2] = system: Staphylococcus aureus 133; details: 37° C., approx. 20 hours, approx. 10^4 CFU per inoculation point
Method: as §1

Providencia sp. 12012 = details: 37° C., approx. 20 hours, approx. 10^4 CFU per inoculation point
Method: as §1

[3] = system: Enterococcus faecalis 9790; details: 37° C., approx. 20 hours, approx. 10^4 CFU per inoculation point
Method: as §1

[4] = system: Acinetobacter caloaceticus 14068; details: 37° C., approx. 20 hours, approx. 10^4 CFU per inoculation point
Method: as §1

Mirococcus luteus 9341 = details: 37° C., approx. 20 hours, approx. 10^4 CFU per inoculation point
Method: as §1

Klebsiella pneumoniae 63 = details: 37° C., approx. 20 hours, approx. 10^4 CFU per inoculation point
Method: as §1

[5] = system: Staphylococcus aureus 1756; details: 37° C., approx. 20 hours, approx. 10^4 CFU per inoculation point
Method: as §1

[6] = system: Staphylococcus aureus 25768; details: 37° C., approx. 20 hours, approx. 10^4 CFU per inoculation point
Method: as §1

E. coli 455/7 = details: Escherichia coli, 37° C., approx. 20 hours, approx. 10^4 CFU per inoculation point
Method: as §1

[7] = system: Staphylococcus aureus ICB 25701; details: ICB25701, 37° C., approx. 20 hours, approx. 10^4 CFU per inoculation point
Method: as §1

Providencia sp. 12052 = details: 37° C., approx. 20 hours, approx. 10^4 CFU per inoculation point
Method: as §1

[8] = system: Enterococcus faecalis 27101; details: 37° C., approx. 20 hours, approx. 10^4 CFU per inoculation point
Method: as §1

Compound	MIC [1] [µg/mL]	MIC (E. coli Neumann) [µg/mL]	MIC [2] [µg/mL]	MIC (Providencia sp. 12012) [µg/mL]	MIC [3] [µg/mL]	MIC [4] [µg/mL]	MIC (Mirococcus luteus 9341) [µg/mL]	MIC (Klebsiella pneumoniae 63) [µg/mL]	MIC [5] [µg/mL]	MIC [6] [µg/mL]	MIC (E. coli 455/7) [µg/mL]	MIC [7] [µg/mL]	MIC (Providencia sp. 12052) [µg/mL]	MIC [8] [µg/mL]
CC1C=CC(N)C2CN(c3ccc4c(=O)c(C(=O)O)cn(C5CC5)c4c3F)CC12 (stereo not shown) [Example 21]	0.3 (≈ 0.755 µM)	0.015 (≈ 0.0377 µM)	0.015 (≈ 0.0377 µM)	0.06 (≈ 0.151 µM)	0.06 (≈ 0.151 µM)	0.03 (≈ 0.0755 µM)	0.125 (≈ 0.315 µM)	0.3 (≈ 0.755 µM)	0.015 (≈ 0.0377 µM)	2 (≈ 5.03 µM)	0.5 (≈ 1.26 µM)	0.25 (≈ 0.629 µM)	1 (≈ 2.52 µM)	0.06 (≈ 0.151 µM)
NC1CCN(c2ccc3c(=O)c(C(=O)O)cn(C4CC4)c3c2F)C1 (stereo not shown) [Reference, 7-(3-aminopyrrolidin-1-yl)-1-cyclopropyl-8-fluoro-1,4-dihydro-4-oxo-3-quinolinecarboxylic acid, reference compound]	0.062 (≈ 0.187 µM)	0.031 (≈ 0.0936 µM)	0.125 (≈ 0.377 µM)	0.06 (≈ 0.181 µM)	0.25 (≈ 0.754 µM)	0.25 (≈ 0.754 µM)	0.5 (≈ 1.51 µM)	0.062 (≈ 0.187 µM)	0.125 (≈ 0.377 µM)	16 (≈ 48.3 µM)	1 (≈ 3.02 µM)	4 (≈ 12.1 µM)	2 (≈ 6.04 µM)	0.25 (≈ 0.754 µM)
NC1C=CCC2CN(c3ccc4c(=O)c(C(=O)O)cn(C5CC5)c4c3F)CC12 (stereo not shown) [Example 20]	0.03 (≈ 0.0782 µM)	0.03 (≈ 0.0782 µM)	0.03 (≈ 0.0782 µM)	0.06 (≈ 0.156 µM)	0.06 (≈ 0.156 µM)	0.06 (≈ 0.156 µM)	0.06 (≈ 0.156 µM)	0.03 (≈ 0.0782 µM)	0.015 (≈ 0.0391 µM)	4 (≈ 10.4 µM)	1 (≈ 2.61 µM)	0.25 (≈ 0.652 µM)	1 (≈ 2.61 µM)	0.06 (≈ 0.156 µM)

More lines, in order of falling MIC [1], values ahead:

MIC [1] [µg/mL]	MIC (E. coli Neumann) [µg/mL]	MIC [2] [µg/mL]	MIC (Providencia sp. 12012) [µg/mL]	MIC [3] [µg/mL]	MIC [4] [µg/mL]	MIC (Mirococcus luteus 9341) [µg/mL]	MIC (Klebsiella pneumoniae 63) [µg/mL]	MIC [5] [µg/mL]	MIC [6] [µg/mL]	MIC (E. coli 455/7) [µg/mL]	MIC [7] [µg/mL]	MIC (Providencia sp. 12052) [µg/mL]	MIC [8] [µg/mL]	Compound
0.03 (≈ 0.0725 µM)	0.015 (≈ 0.0362 µM)	0.0078 (≈ 0.0188 µM)	0.06 (≈ 0.145 µM)	0.06 (≈ 0.145 µM)	0.03 (≈ 0.0725 µM)	0.06 (≈ 0.145 µM)	0.03 (≈ 0.0725 µM)	0.0078 (≈ 0.0188 µM)	2 (≈ 4.83 µM)	0.5 (≈ 1.21 µM)	0.06 (≈ 0.145 µM)	1 (≈ 2.42 µM)	0.06 (≈ 0.145 µM)	CC1C=CC(N)C2CN(c3ccc4c(=O)c(C(=O)O)cn(C5CC5)c4c3Cl)CC12 (stereo not shown) [Example 8]
0.015 (≈ 0.0375 µM)	0.0078 (≈ 0.0195 µM)	0.0039 (≈ 0.00975 µM)	0.015 (≈ 0.0375 µM)	0.03 (≈ 0.075 µM)	0.015 (≈ 0.0375 µM)	0.03 (≈ 0.075 µM)	0.015 (≈ 0.0375 µM)	0.0039 (≈ 0.00975 µM)	2 (≈ 5 µM)	0.5 (≈ 1.25 µM)	0.06 (≈ 0.15 µM)	1 (≈ 2.5 µM)	0.015 (≈ 0.0375 µM)	NC1C=CCC2CN(c3ccc4c(=O)c(C(=O)O)cn(C5CC5)c4c3Cl)CC12 (stereo not shown) [Example 7]
